Several values for one entry are separate records, joined by “and”; a condition that tells them apart may be missing. Equal values may be shown once. Read-outs that look alike come from different tables or passages of the source.
Columns and labels:
[1] = biological target: T1, human D4 receptor (HEK-D4R) (Homo sapiens, UniProt P21917); experiment: [3H]methylspiperone binding screening at HEK-D4R; conditions: 10 μM
T1 sequence (P21917 1-419): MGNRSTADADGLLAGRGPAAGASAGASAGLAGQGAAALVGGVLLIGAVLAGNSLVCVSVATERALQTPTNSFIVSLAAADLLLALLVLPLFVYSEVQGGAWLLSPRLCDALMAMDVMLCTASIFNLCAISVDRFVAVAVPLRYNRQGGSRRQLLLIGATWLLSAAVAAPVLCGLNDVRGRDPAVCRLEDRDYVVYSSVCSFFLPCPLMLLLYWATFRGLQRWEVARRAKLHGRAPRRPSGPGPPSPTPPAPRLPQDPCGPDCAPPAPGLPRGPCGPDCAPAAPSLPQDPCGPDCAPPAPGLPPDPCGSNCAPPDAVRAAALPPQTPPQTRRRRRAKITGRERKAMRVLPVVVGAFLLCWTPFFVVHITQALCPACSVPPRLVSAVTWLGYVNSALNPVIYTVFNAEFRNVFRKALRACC

[2] = biological target: T2, human D3 receptor (CHO-D3R) (Homo sapiens, UniProt P35462); experiment: ERK1/2 phosphorylation; format: cell-based; conditions: for ERK1/2 phosphorylation, functional screening (result in words): CHO-D3R cells, 5 min
T2 sequence (P35462 whole entry): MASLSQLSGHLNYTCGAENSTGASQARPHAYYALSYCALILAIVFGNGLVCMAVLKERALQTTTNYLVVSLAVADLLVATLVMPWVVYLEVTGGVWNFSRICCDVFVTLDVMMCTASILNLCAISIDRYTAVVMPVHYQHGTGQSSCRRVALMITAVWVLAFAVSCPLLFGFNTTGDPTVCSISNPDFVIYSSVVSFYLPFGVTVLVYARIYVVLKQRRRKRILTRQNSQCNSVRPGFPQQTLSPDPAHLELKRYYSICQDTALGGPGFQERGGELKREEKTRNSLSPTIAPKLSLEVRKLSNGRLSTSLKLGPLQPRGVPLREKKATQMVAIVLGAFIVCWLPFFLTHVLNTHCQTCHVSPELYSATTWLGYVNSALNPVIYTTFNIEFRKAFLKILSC

[3] = biological target: T3, human D2 receptor (CHO-D2R) (Homo sapiens, UniProt P14416); experiment: [3H]methylspiperone binding to CHO-D2R membranes; conditions: 10 μM; for Affinity to D2R, high-affinity state (result in words): CHO-D2R membranes pretreated with GDP and Na+, Mg2+ buffer; for Binding to D2R in binding screening (result in words): CHO-D2R, regular binding buffer
T3 sequence (P14416 whole entry): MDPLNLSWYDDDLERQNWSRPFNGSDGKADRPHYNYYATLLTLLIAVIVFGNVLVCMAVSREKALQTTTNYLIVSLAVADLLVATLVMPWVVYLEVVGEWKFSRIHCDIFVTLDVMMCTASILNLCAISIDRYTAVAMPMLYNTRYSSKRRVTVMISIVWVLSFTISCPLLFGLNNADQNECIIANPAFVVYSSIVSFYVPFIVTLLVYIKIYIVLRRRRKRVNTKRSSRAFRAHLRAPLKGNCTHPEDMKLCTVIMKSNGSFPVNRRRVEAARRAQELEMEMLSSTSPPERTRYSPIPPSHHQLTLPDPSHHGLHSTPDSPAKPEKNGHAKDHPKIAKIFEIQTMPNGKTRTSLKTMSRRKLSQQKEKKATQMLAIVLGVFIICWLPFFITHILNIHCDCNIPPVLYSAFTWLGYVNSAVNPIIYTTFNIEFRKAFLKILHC

[4] = biological target: T3, human D2 receptor (CHO-D2R); experiment: Agonist-induced [35S]GTPγS binding to CHO-D2R membranes; format: biochemical
[5] = biological target: T2, human D3 receptor (CHO-D3R); experiment: Agonist-induced [35S]GTPγS binding to CHO-D3R membranes; format: biochemical
hD3R = hD3R (Homo sapiens, UniProt P35462); experiment: PathHunter eXpress U2OS D3R β-arrestin-2 recruitment assay; format: cell-based
Sequence of hD3R (P35462 whole entry): as the sequence (P35462 whole entry) above

[6] = biological target: human D3 receptor (HEK-D3R) (Homo sapiens, UniProt P35462); format: cell-based; conditions: 1 μM 30 min pretreatment, washes, 1 μM 2 min
Sequence of human D3 receptor (HEK-D3R) (P35462 whole entry): as above

[7] = biological target: T2, human D3 receptor (CHO-D3R); experiment: [3H]methylspiperone binding to CHO-D3R membranes; conditions: for Ki: [3H]methylspiperone competition, two-site analysis
[8] = biological target: T3, human D2 receptor (CHO-D2R); experiment: ERK1/2 phosphorylation; format: cell-based; conditions: CHO-D2R cells, 1 μM, 5 min

Row | Selectivity to D3R in ERK1/2 activation ([2]; CHO-D3R versus CHO-D2R cells, 1 μM) | Compound | Binding to D4R in binding screening (result in words) [1] | ERK1/2 phosphorylation Emax ([2]; CHO-D3R cells treated 5 min at 37 °C, DA = 100) | ERK1/2 phosphorylation, functional screening (result in words) ([2]; 1 μM) | EC50 ([2]; read-out: ERK1/2 phosphorylation EC50, CHO-D3R cells treated 5 min at 37 °C) | Affinity to D2R, high-affinity state (result in words) [3] | Binding to D2R in binding screening (result in words) [3] | IC50 ([3]; read-out: IC50 for D2R binding, low-affinity state, CHO-D2R in Na+-GTPγS binding buffer) | [35S]GTPγS binding Emax ([4]; D2R, DA effect defined as 100%) | EC50 ([4]; read-out: [35S]GTPγS binding EC50, D2R (CHO-D2R membranes)) | [35S]GTPγS binding Emax ([5]; DA effect defined as 100%) | EC50 ([5]; read-out: [35S]GTPγS binding EC50) | β-arrestin recruitment Emax (hD3R; perhaps underestimates from incomplete curves) | EC50 (hD3R; read-out: β-arrestin recruitment EC50, 90 min stimulation) | Desensitization of D3R/ERK1/2 signaling on repeated treatment [6] | Binding to D3R in binding screening (result in words) ([7]; CHO-D3R, 10 μM) | Ki ([7]; read-out: Ki-H (high-affinity Ki) to CHO-hD3) | Ki ([7]; read-out: Ki-L (low-affinity Ki) to CHO-hD3) | ERK1/2 phosphorylation, functional screening (result in words) [8]
1 |  | CCCN1CCO[C@@H]2c3cc(O)ccc3OC[C@H]21 [PD128907] | high binding affinity | 100 | significantly activated ERK1/2 phosphorylation | 7.1 ± 0.5 nM | higher affinity for D2R than in the regular binding buffer | high binding affinity | > 10000 nM | 92.8 ± 1.7 % of DA | 103 ± 29.6 nM | 95.1 ± 2.1 % of DA | 1.19 nM and 1.2 nM | 100 % of PD128907 | 5.5 ± 0.18 nM | significant reduction of ERK1/2 phosphorylation signal | high binding affinity | 3.7 ± 1.6 nM | 14.6 ± 3.6 nM | significantly evoked ERK1/2 phosphorylation
2 |  | NCCc1ccc(O)c(O)c1 [DA, dopamine] |  |  |  |  | higher affinity for D2R than in the regular binding buffer | high binding affinity |  |  |  |  |  |  |  |  |  |  |  | significantly evoked ERK1/2 phosphorylation
3 | maintained selectivity to D3R | CC(N)CCc1ccco1 (centres unmarked) [SK603, 4-(fluran-2-yl)butan-2-amine] |  |  | reduction in functional effect |  |  |  |  |  |  |  |  |  |  |  |  |  |  | 
